# Assays:
# [1] = Refractive index, Abbe refractometer; format: physicochemical
# Method: (§1) The densities of the ionic liquids […] were determined at 23° C. by placing 2.0 mL of the ionic liquid in a 2.0 mL volumetric tube and weighing by difference. The melting points of the ionic liquids were determined using a Perkin Elmer Pyris 1 Differential Scanning Calorimeter (Boston, Mass.). Typical methods involved using a 10° C./min temperature ramp to determine and identify the first and second order thermal transitions. […] For solid compounds, the melting points were verified using a capillary melting point apparatus. Refractive index measurements were conducted at 23° C. using a Bausch & Lomb Abbe-3L refractometer.
# [2] = Density by weighing 2.0 mL of ionic liquid; format: physicochemical
# Method: as §1
# [3] = Surface tension, DuNuoy tensiometer; format: physicochemical; settings: room temperature (23° C.)
# Method: Surface tension values were measured at room temperature (23° C.) using a Model 20 DuNuoy Tensiometer (Fisher Scientific, Fair Lawn, N.J.) equipped with a platinum-iridium ring with a mean circumference of 5.940 cm and a ring/wire radius of 53.21.
# [4] = Thermal stability of thin film in fused silica capillary, flame ionization detection; format: physicochemical
# Method: Thermal stabilities were measured by immobilizing an approximate 0.15-0.20 microns film of the ionic liquid on the inner wall of a fused silica capillary. The capillary was then heated slowly in an oven and a very sensitive flame ionization detector (or mass spectrometer) used to detect any volatilization or decomposition of the ionic liquid. There are several advantages of using this set-up to measure the thermal stabilities of ionic liquids. The thermal stability is measured in the absence of oxygen by purging the capillary with a continuous flow of an inert gas such as helium, hydrogen, or nitrogen. […] Finally, this approach can use mass spectrometry detection to determine the likely volatilization/decomposition products.
# [5] = Solvation interaction parameters by inverse gas-liquid chromatography (Abraham model); format: physicochemical
# Method: The preparation of the capillary columns for inverse gas-liquid chromatographic analysis was performed using a previously described procedure. All capillary columns had efficiencies between 2100 to 2500 plates/meter. Characterization of the capillary columns and probe molecule descriptions are listed in supplemental information. Multiple linear regression analysis (MLRA) and statistical calculations were performed using the program Analyse-it (Microsoft, USA).
# Solvation Characteristics. We have previously reported that the Abraham solvation model, a linear free energy approach that utilizes inverse gas-liquid chromatography to describe the solvation properties of a liquid, can be used to characterize room temperature ionic liquids. Described by equation 1, the model provides the so-called “interaction parameters” (r, s, a, b, l) by using multiple linear regression analysis to fit the retention factor (k, determined chromatographically) to the solute descriptors (R2, π2^Hα2H, β2^H, log L^16) for a wide variety of probe solute molecules. […]
# Previously we characterized a large number of room temperature ionic liquids in terms of multiple solvation interactions using the solvation parameter model, shown in equation log k=c+rR2+sπ2^H+aα2^H+bβ2^H+l log L^16 [3] This approach utilizes inverse gas-liquid chromatography and allows the use of a large number of probe molecules to deconvolute solute retention in terms of the type and magnitude of individual solvation interactions. The solute descriptors (R2, π2^H, α2^H, .β2^H, log L^16) from Equation 3 are obtained from the literature for many probe molecules containing a variety of functional groups. The retention factor is determined chromatographically. The solute descriptors and retention factors are subjected to multiple linear regression analysis to obtain the interaction parameter coefficients (r, s, a, b, l), which ultimately characterize the stationary phase: r is the ability of the diionic liquid containing-stationary phase to interact with .π0 and n electrons of the solute, s is a measure of the dipolarity/polarizability of the diionic liquid containing-stationary phase, a defines the diionic liquid containing-stationary phase hydrogen bond basicity, b is a measure of the hydrogen bond acidity, and l refers to the ability of the diionic liquid containing-stationary phase to separate adjacent members of a homologous series.
# Test solutes used to determine interaction parameters and solvation thermodynamics were dissolved in dichloromethane. […] Split injection and flame ionization detection were utilized with injection and detection temperatures of 250° C. Helium was used as the carrier gas with a column inlet pressure of 3.1 psi and flow rate of 1.0 mL/min. Methane was used to determine the dead volume of the column. Multiple linear regression analysis and statistical calculations were performed using the program Analyze-it (Microsoft).
# [6] = Miscibility/solubility in heptane and water
# From the text: The miscibility/solubility of all ionic liquids in both heptane and water are indicated as well.
# The solubility behavior of all thirty-nine geminal dicationic ionic liquids in water and heptane also was explored.
# [7] = Solubility assay of N-methyl-D-glucamine in solvents; format: physicochemical
# From the text: The mechanism for the transformation of N-methyl-D-glucamine into a quaternary ammonium compound is a double nucleophilic substitution with an alkyl halide (FIG. 57). However, the first problem the inventors herein encountered with this approach was the lack of an appropriate solvent.
molecule,measurement,setting,value
"C=Cn1cc[n+](CCCCCCCCCCCC)c1.O=S(=O)([N-]S(=O)(=O)C(F)(F)F)C(F)(F)F [Monomer 3, 1-vinyl-3-dodecylimidazolium bis[(trifluoromethane)sulfonyl]imidate]",Refractive Index,"[1]; monomers/crosslinkers, Table A",1.448
same,Density,"[2]; monomers/crosslinkers, Table A",1.23 g/mL
"1,9-di(2,3-dimethylimidazolium)nonane di-tetrafluoroborate [C9(m2im)2-BF4]",Refractive Index,"[1]; 23° C., Tables 1 and 2",1.456
same,Density,"[2]; 23° C., Tables 1 and 2",1.31 g/mL
same,Surface Tension,[3],58.1 dynes/cm
"C[N+]1(CCCCCCCCC[N+]2(C)CCCC2)CCCC1.O=S(=O)([N-]S(=O)(=O)C(F)(F)F)C(F)(F)F.O=S(=O)([N-]S(=O)(=O)C(F)(F)F)C(F)(F)F [C9(mpy)2-NTf2, 1,9-di(methylpyrrolidinium)nonane di-bis[(trifluoromethyl)sulfonyl]imidate]",stable liquid range,[4],about −4 °C to >400 °C
same,Interaction parameter a (hydrogen bond basicity),[5]; 40° C.,1.98
same,Interaction parameter b (hydrogen bond acidity),[5]; 40° C.,0.32
same,Interaction parameter c,[5]; 40° C.,−2.83
same,Interaction parameter l (dispersion forces),[5]; 40° C.,0.62
same,Interaction parameter r (interaction via nonbonding and π-electrons),[5]; 40° C.,0.27
same,Interaction parameter s (dipolarity/polarizability),[5]; 40° C.,1.71
same,Interaction parameter a (hydrogen bond basicity),[5]; 70° C.,1.65
same,Interaction parameter b (hydrogen bond acidity),[5]; 70° C.,0.35
same,Interaction parameter c,[5]; 70° C.,−2.85
same,Interaction parameter l (dispersion forces),[5]; 70° C.,0.48
same,Interaction parameter r (interaction via nonbonding and π-electrons),[5]; 70° C.,0.34
same,Interaction parameter s (dipolarity/polarizability),[5]; 70° C.,1.52
same,Interaction parameter a (hydrogen bond basicity),[5]; 100° C.,1.48
same,Interaction parameter b (hydrogen bond acidity),[5]; 100° C.,0.15
same,Interaction parameter c,[5]; 100° C.,−2.99
same,Interaction parameter l (dispersion forces),[5]; 100° C.,0.42
same,Interaction parameter r (interaction via nonbonding and π-electrons),[5]; 100° C.,0.23
same,Interaction parameter s (dipolarity/polarizability),[5]; 100° C.,1.49
"Cn1cc[n+](CCCCCCCCCCCC[n+]2ccn(C)c2)c1.[Br-].[Br-] [C12(mim)2-Br, 1,12-di(3-methylimidazolium)dodecane di-bromide]",Miscibility with Water,[6],Miscible
same,Density,"[2]; 23° C., Tables 1 and 2",1.27 g/mL
same,Surface Tension,[3],57.9 dynes/cm
CNC[C@H](O)[C@@H](O)[C@H](O)[C@H](O)CO [N-methyl-D-glucamine],"solubility in acetone, dimethyl formamide, tetrahydrofuran, ethyl acetate, acetonitrile and dichloromethane",[7],insoluble
same,"solubility in water, dimethylsulfoxide (DMSO)",[7],only soluble
